Reference: US20220251116A1, “ALKYLBORONIC ACIDS AS ARGINASE INHIBITORS” (Guangdong Newopp Biopharmaceuticals Co., Ltd., priority 2019, published 2022)
Structures can show the parent of a compound that is named as a salt.

molecular target: T1, recombinant human arginase 1 (Homo sapiens, UniProt P05089); assay: Arginase inhibitory activity test, enzymatic assay based on urea measurement (Arg 1);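 further: enzyme incubated with L-arginine substrate and compound at 37 °C for 120 min, urea product detected colorimetrically by absorbance at 450 nm, background from wells lacking enzyme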
T1 sequence (P05089 1-322): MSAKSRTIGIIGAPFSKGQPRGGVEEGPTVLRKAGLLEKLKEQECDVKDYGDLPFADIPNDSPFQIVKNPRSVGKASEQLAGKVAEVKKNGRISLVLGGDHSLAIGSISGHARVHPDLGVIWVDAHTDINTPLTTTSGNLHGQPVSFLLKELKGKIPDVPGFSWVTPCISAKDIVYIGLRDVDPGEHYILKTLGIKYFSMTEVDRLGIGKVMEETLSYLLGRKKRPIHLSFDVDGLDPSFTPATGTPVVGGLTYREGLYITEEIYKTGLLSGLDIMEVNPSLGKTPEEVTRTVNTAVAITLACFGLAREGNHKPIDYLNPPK
Description: An enzymatic assay with recombinant human arginases 1 or 2 was used to measure inhibitory activity of the compounds. The assay is based on urea measurement, which is a product of L-arginine enzymatic degradation.
Briefly, arginase and the substrate solution containing L-arginine were incubated in the absence or presence of varying concentrations of compounds at 37° C. for 120 min. For the background correction, only the substrate solution was added without arginase. The urea detection reagent from QuantiChrome™ Urea assay kit (BioAssay Systems, CA) was added to develop the color product. After 60 min at room temperature, the absorbance was measured at 450 nm with CLARIOstar (BMG LABTECH). Urea was used as the standard.

Row | IC50 [µM] | SMILES
1 | < 0.1 | CC1(C)[C@H]2C[C@@H]3OB(CCC[C@H]4CN(S(=O)(=O)NCCN)C[C@@]4(N)C(=O)O)O[C@]3(C)[C@@H]1C2 (racemic) [Example 36]
2 | 0.1 to 1 | N=C(NC(=O)CN)N1C[C@H](CCCB(O)O)[C@](N)(C(=O)O)C1 (racemic) [Example 38, rac-(trans)-3-amino-4-(3-boronopropyl)-1-(N-glycylcarbamimidoyl)pyrrolidine-3-carboxylic acid, 2,2,2-trifluoroacetic acid salt (1:2)]
3 | 0.1 to 1 | NC1(CNS(=O)(=O)N2C[C@H](CCCB(O)O)[C@](N)(C(=O)O)C2)COC1 (racemic) [Example 39, (rac)-trans-3-amino-1-(N-((3-aminooxetan-3-yl)methyl)sulfamoyl)-4-(3-boronopropyl)pyrrolidine-3-carboxylic acid, 2,2,2-trifluoroacetic acid salt (1:2)]
4 | 0.1 to 1 | NC1COCC1NS(=O)(=O)N1CC(CCCB(O)O)C(N)(C(=O)O)C1 (racemic) [Example 41, (rac)-trans-3-amino-1-(N-((trans)-4-aminotetrahydrofuran-3-yl)sulfamoyl)-4-(3-boronopropyl)pyrrolidine-3-carboxylic acid, 2,2,2-trifluoroacetic acid salt (1:2)]
5 | < 0.1 | CN(C1CNC1)S(=O)(=O)N1C[C@H](CCCB(O)O)[C@](N)(C(=O)O)C1 (racemic) [Example 42, (rac)-trans-3-amino-1-(N-(azetidin-3-yl)-N-methylsulfamoyl)-4-(3-boronopropyl)pyrrolidine-3-carboxylic acid, 2,2,2-trifluoroacetic acid salt (1:2)]
6 | 0.1 to 1 | CC1(NS(=O)(=O)N2C[C@H](CCCB(O)O)[C@](N)(C(=O)O)C2)CNC1 (racemic) [Example 43, (rac)-trans-3-amino-4-(3-boronopropyl)-1-(N-(3-methylazetidin-3-yl)sulfamoyl)pyrrolidine-3-carboxylic acid, 2,2,2-trifluoroacetic acid salt (1:2)]
7 | 0.1 to 1 | CN1CCN(S(=O)(=O)N2C[C@H](CCCB(O)O)[C@](N)(C(=O)O)C2)CC1 (racemic) [Example 44, (racemic)-trans-3-amino-4-(3-boronopropyl)-1-((4-methylpiperazin-1-yl)sulfonyl)pyrrolidine-3-carboxylic acid, 2,2,2-trifluoroacetic acid salt (1:2)]
8 | 0.1 to 1 | CN(C)CCN(C)S(=O)(=O)N1C[C@H](CCCB(O)O)[C@](N)(C(=O)O)C1 (racemic) [Example 45, (racemic)-trans-3-amino-4-(3-boronopropyl)-1-(N-(2-(dimethylamino)ethyl)-N-methylsulfamoyl)pyrrolidine-3-carboxylic acid, 2,2,2-trifluoroacetic acid salt (1:2)]
9 | 0.1 to 1 | CNCCNS(=O)(=O)N1C[C@H](CCCB(O)O)[C@](N)(C(=O)O)C1 (racemic) [Example 46, (racemic)-trans-3-amino-4-(3-boronopropyl)-1-(N-(2-(methylamino)ethyl)sulfamoyl)pyrrolidine-3-carboxylic acid, 2,2,2-trifluoroacetic acid salt (1:2)]
10 | < 0.1 | CNCCN(C)S(=O)(=O)N1C[C@H](CCCB(O)O)[C@](N)(C(=O)O)C1 (racemic) [Example 47, (racemic)-trans-3-amino-4-(3-boronopropyl)-1-(N-methyl-N-(2-(methylamino)ethyl)sulfamoyl)pyrrolidine-3-carboxylic acid, 2,2,2-trifluoroacetic acid salt (1:2)]
11 | 0.1 to 1 | CC(C)(N)C(C)(C)NS(=O)(=O)N1C[C@H](CCCB(O)O)[C@](N)(C(=O)O)C1 (racemic) [Example 50, (racemic)-trans-3-amino-1-(N-(3-amino-2,3-dimethylbutan-2-yl)sulfamoyl)-4-(3-boronopropyl)pyrrolidine-3-carboxylic acid, 2,2,2-trifluoroacetic acid salt (1:2)]
12 | 0.1 to 1 | N=C(N)NC(=O)N1C[C@H](CCCB(O)O)[C@](N)(C(=O)O)C1 (racemic) [Example 51, (racemic)-trans-3-amino-4-(3-boronopropyl)-1-(carbamimidoylcarbamoyl)pyrrolidine-3-carboxylic acid, 2,2,2-trifluoroacetic acid salt (1:2)]
13 | < 0.1 | CCN(C1CNC1)S(=O)(=O)N1C[C@H](CCCB(O)O)[C@](N)(C(=O)O)C1 (racemic) [Example 52, (racemic)-trans-3-amino-1-(N-(azetidin-3-yl)-N-ethylsulfamoyl)-4-(3-boronopropyl)pyrrolidine-3-carboxylic acid 2,2,2-trifluoroacetic acid salt (1:2)]
14 | 1 to 10 | NC(=O)NS(=O)(=O)N1C[C@H](CCCB(O)O)[C@](N)(C(=O)O)C1 (racemic) [Example 53, (racemic)-trans-3-amino-4-(3-boronopropyl)-1-(N-carbamoylsulfamoyl)pyrrolidine-3-carboxylic acid 2,2,2-trifluoroacetic acid salt (1:2)]
15 | 0.1 to 1 | N=C(N)NCCNS(=O)(=O)N1C[C@H](CCCB(O)O)[C@](N)(C(=O)O)C1 (racemic) [Example 54, (racemic)-trans-3-amino-4-(3-boronopropyl)-1-(N-(2-guanidinoethyl)sulfamoyl)pyrrolidine-3-carboxylic acid, 2,2,2-trifluoroacetic acid salt (1:2)]
16 | < 0.1 | COC(=O)[C@@H](N)CNS(=O)(=O)N1C[C@H](CCCB(O)O)[C@](N)(C(=O)O)C1 (racemic) [Example 55]
17 | 0.1 to 1 | N[C@@H](CNS(=O)(=O)N1C[C@H](CCCB(O)O)[C@](N)(C(=O)O)C1)C(=O)O (racemic) [Example 56]
18 | 0.1 to 1 | N[C@H]1CC1NS(=O)(=O)N1C[C@H](CCCB(O)O)[C@](N)(C(=O)O)C1 (relative stereo) [Example 40, (3R,4S)-3-amino-1-(N-((cis)-2-aminocyclopropyl)sulfamoyl)-4-(3-boronopropyl)pyrrolidine-3-carboxylic acid, 2,2,2-trifluoroacetic acid salt (1:2)]
19 | < 0.1 | CN(CCN)S(=O)(=O)N1C[C@H](CCCB(O)O)[C@](N)(C(=O)O)C1 [Example 27, (3R,4S)-3-amino-1-(N-(2-aminoethyl)-N-methylsulfamoyl)-4-(3-boronopropyl)pyrrolidine-3-carboxylic acid, 2,2,2-trifluoroacetic acid salt (1:2)]
20 | < 0.1 | NCCNc1c(N2C[C@H](CCCB(O)O)[C@](N)(C(=O)O)C2)c(=O)c1=O [Example 28, (3R,4S)-3-amino-1-(2-((2-aminoethyl)amino)-3,4-dioxocyclobut-1-en-1-yl)-4-(3-boronopropyl)pyrrolidine-3-carboxylic acid, 2,2,2-trifluoroacetic acid salt (1:2)]
21 | < 0.1 | CN(CCN)c1c(N2C[C@H](CCCB(O)O)[C@](N)(C(=O)O)C2)c(=O)c1=O [Example 29, (3R,4S)-3-amino-1-(2-((2-aminoethyl)(methyl)amino)-3,4-dioxocyclobut-1-en-1-yl)-4-(3-boronopropyl)pyrrolidine-3-carboxylic acid, 2,2,2-trifluoroacetic acid salt (1:2)]
22 | < 0.1 | CC(C)N(C1CNC1)S(=O)(=O)N1C[C@H](CCCB(O)O)[C@](N)(C(=O)O)C1 [Example 57, (3R,4S)-3-amino-1-(N-(azetidin-3-yl)-N-isopropylsulfamoyl)-4-(3-boronopropyl)pyrrolidine-3-carboxylic acid, 2,2,2-trifluoroacetic acid salt (1:2)]
23 | 0.1 to 1 | CC(NS(=O)(=O)N1C[C@H](CCCB(O)O)[C@](N)(C(=O)O)C1)C1(N)CC1 (stereo partly drawn) [Example 58, (3R,4S)-3-amino-1-(N-(1-(1-aminocyclopropyl)ethyl)sulfamoyl)-4-(3-boronopropyl)pyrrolidine-3-carboxylic acid, 2,2,2-trifluoroacetic acid salt (1:2)]
24 | < 0.1 | CCCN(C1CNC1)S(=O)(=O)N1C[C@H](CCCB(O)O)[C@](N)(C(=O)O)C1 [Example 59, (3R,4S)-3-amino-1-(N-(azetidin-3-yl)-N-propylsulfamoyl)-4-(3-boronopropyl)pyrrolidine-3-carboxylic acid, 2,2,2-trifluoroacetic acid salt (1:2)]
25 | < 0.1 | CC(C)CN(C1CNC1)S(=O)(=O)N1C[C@H](CCCB(O)O)[C@](N)(C(=O)O)C1 [Example 60, (3R,4S)-3-amino-1-(N-(azetidin-3-yl)-N-isobutylsulfamoyl)-4-(3-boronopropyl)pyrrolidine-3-carboxylic acid, 2,2,2-trifluoroacetic acid salt (1:2)]
26 | < 0.1 | CCCCN(C1CNC1)S(=O)(=O)N1C[C@H](CCCB(O)O)[C@](N)(C(=O)O)C1 [Example 61, (3R,4S)-3-amino-1-(N-(azetidin-3-yl)-N-butylsulfamoyl)-4-(3-boronopropyl)pyrrolidine-3-carboxylic acid, 2,2,2-trifluoroacetic acid salt (1:2)]
27 | < 0.1 | N[C@@]1(C(=O)O)CN(S(=O)(=O)N(Cc2ccccc2)C2CNC2)C[C@@H]1CCCB(O)O [Example 62, (3R,4S)-3-amino-1-(N-(azetidin-3-yl)-N-benzylsulfamoyl)-4-(3-boronopropyl)pyrrolidine-3-carboxylic acid, 2,2,2-trifluoroacetic acid salt (1:2)]
28 | < 0.1 | N[C@@]1(C(=O)O)CN(S(=O)(=O)N(CC2CC2)C2CNC2)C[C@@H]1CCCB(O)O [Example 63, (3R,4S)-3-amino-1-(N-(azetidin-3-yl)-N-(cyclopropylmethyl)sulfamoyl)-4-(3-boronopropyl)pyrrolidine-3-carboxylic acid, 2,2,2-trifluoroacetic acid salt (1:2)]
